{
  "source": "paper PMC11558128",
  "about": "(Advanced Science, 2024)",
  "key": {"[1]": {"target": "T1, rKv4.2 (Rattus norvegicus, UniProt Q63881)", "T1 construct": "expressed in transfected cells; host or cells: HEK293T", "T1 sequence (Q63881 1-630)": "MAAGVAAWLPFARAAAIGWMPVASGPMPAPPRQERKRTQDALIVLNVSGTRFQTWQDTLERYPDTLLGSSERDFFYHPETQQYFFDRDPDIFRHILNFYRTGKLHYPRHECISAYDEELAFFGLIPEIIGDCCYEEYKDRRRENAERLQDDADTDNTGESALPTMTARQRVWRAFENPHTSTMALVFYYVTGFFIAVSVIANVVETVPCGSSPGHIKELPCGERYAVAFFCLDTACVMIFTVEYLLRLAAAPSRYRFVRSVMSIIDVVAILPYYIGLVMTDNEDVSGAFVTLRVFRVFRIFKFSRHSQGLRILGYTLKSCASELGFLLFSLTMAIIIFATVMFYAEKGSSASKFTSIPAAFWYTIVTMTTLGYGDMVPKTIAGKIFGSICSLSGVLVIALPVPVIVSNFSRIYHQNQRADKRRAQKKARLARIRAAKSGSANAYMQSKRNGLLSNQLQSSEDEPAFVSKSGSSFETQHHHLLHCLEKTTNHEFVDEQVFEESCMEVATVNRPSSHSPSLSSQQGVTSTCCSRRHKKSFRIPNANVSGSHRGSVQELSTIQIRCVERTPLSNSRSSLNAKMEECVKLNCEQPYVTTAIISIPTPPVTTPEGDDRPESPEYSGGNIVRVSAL", "test": "cell-based", "conditions": "for IC50: whole-cell patch clamp, HEK293T, mean ± SEM, n = 3-8, read-out: IC50 on rKv4.2 WT"}, "[2]": {"target": "T2, rKv4.3 (Rattus norvegicus, UniProt Q62897)", "T2 construct": "expressed in transfected cells; host or cells: HEK293T", "T2 sequence (Q62897 1-655)": "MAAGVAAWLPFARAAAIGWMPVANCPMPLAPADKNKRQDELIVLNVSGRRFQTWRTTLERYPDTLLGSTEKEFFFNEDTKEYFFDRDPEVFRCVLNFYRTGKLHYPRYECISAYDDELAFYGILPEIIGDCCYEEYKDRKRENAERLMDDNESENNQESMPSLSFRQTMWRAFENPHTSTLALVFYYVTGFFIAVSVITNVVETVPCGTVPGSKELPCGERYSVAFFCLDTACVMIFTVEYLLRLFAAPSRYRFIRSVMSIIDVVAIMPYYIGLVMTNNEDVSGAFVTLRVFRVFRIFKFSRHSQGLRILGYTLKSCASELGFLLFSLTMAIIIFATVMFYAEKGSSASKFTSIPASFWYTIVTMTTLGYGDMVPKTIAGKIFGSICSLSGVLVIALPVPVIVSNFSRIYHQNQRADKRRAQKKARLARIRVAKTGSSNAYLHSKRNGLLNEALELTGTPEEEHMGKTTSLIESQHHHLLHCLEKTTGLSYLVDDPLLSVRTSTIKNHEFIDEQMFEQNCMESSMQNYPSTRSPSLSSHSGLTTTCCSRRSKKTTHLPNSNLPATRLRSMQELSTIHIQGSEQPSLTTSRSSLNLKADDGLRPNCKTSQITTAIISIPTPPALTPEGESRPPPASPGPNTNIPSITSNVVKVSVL", "test": "cell-based"}, "[3]": {"target": "T3, hNav1.7 (Homo sapiens, UniProt Q15858)", "T3 construct": "expressed in transfected cells; host or cells: HEK293T", "T3 sequence (O60939 30-215)": "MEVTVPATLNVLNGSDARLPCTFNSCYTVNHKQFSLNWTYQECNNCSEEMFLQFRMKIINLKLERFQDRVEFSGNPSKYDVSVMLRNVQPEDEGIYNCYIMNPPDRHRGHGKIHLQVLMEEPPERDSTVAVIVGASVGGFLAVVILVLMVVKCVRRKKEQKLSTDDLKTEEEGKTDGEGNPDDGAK", "T3 sequence (Q15858 other isoform, or with tags, fused parts or gaps)": "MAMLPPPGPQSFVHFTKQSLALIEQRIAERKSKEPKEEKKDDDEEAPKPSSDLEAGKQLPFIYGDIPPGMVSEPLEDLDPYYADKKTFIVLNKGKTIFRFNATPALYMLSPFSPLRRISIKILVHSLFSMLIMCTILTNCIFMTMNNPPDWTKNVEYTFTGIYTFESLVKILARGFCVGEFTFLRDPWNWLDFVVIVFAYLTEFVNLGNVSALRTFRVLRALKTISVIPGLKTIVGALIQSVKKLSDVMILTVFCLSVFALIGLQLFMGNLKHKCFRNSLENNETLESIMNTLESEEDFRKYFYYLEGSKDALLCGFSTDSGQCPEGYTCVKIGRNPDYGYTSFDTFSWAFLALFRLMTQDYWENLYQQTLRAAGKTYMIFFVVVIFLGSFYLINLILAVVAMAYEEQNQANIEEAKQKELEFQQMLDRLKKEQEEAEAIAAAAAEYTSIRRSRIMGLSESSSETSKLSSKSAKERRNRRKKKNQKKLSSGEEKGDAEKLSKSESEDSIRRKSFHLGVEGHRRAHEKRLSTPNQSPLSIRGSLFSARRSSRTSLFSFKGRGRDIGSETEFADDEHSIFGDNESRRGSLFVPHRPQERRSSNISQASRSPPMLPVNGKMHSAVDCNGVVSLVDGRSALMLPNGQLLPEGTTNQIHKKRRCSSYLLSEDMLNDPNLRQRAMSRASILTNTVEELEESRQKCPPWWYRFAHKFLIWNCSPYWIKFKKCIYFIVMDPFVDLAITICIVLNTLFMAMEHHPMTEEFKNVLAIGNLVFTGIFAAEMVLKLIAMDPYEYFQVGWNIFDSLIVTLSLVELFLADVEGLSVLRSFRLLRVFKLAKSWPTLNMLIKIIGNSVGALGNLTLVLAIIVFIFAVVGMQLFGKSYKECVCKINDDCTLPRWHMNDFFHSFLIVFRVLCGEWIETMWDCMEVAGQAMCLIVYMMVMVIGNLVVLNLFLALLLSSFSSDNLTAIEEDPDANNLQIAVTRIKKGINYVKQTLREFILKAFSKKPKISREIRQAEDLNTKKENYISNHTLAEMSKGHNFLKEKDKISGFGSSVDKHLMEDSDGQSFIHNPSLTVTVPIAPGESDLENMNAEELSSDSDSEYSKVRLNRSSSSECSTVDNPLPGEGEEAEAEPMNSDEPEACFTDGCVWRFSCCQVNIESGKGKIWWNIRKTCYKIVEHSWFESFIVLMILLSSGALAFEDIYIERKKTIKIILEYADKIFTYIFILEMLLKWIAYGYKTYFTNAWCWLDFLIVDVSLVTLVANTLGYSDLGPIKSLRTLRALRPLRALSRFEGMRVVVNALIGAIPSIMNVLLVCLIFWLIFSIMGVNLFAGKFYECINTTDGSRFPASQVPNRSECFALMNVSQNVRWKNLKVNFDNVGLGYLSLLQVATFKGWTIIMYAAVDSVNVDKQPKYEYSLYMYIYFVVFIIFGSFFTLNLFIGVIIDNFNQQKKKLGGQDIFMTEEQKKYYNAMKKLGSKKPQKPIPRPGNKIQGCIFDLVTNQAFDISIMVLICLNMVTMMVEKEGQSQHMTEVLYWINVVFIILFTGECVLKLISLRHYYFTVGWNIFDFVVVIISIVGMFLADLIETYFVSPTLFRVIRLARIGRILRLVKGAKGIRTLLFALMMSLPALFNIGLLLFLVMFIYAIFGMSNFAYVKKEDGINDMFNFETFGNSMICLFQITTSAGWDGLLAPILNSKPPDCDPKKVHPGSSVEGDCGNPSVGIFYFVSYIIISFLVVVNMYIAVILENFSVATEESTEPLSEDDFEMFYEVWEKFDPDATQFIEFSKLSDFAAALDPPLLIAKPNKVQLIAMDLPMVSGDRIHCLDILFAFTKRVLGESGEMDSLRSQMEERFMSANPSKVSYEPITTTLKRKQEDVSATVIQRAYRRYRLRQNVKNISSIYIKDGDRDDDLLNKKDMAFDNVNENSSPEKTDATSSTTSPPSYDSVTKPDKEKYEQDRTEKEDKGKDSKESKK", "T3 sequence (Q07699 19-218, further chain)": "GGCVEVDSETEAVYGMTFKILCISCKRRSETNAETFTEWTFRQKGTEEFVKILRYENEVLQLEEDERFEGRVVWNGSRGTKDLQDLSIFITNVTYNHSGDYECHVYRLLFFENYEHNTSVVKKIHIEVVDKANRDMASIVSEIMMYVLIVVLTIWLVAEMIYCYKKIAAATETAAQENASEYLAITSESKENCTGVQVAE", "test": "cell-based", "conditions": "whole-cell patch clamp, HEK293T; mean ± SEM, this study; SEM; read-out: IC50 on hNav1.7"}, "[4]": {"system": "other Kv channels (hKv1.1-1.5, rKv2.1, hKv3.1-3.4, mKv4.1, hKv7.2 and hERG)"}, "[5]": {"system": "acutely isolated rat cardiomyocytes", "conditions": "3 mM, n = 6"}, "[6]": {"conditions": "same toxin concentrations (footnote b160), mean ± S.E.M., SEM"}},
  "note": "Like-named read-outs stand apart in the source and are kept apart here. Positions of bridges follow the written chain, without caps; N, C: chain ends. Residues, ends and D or L forms follow the SMILES beside them.",
  "data": [
    {"smiles": "CC(C)C[C@H](NC(=O)[C@H](CC(=O)O)NC(=O)[C@H](Cc1ccc(O)cc1)NC(=O)[C@H](CCCCN)NC(=O)[C@@H]1CSSC[C@@H]2NC(=O)[C@H](CCC(N)=O)NC(=O)[C@H](CC(=O)O)NC(=O)[C@H](CC(N)=O)NC(=O)[C@H](CO)NC(=O)[C@@H]3CCCN3C(=O)[C@H](CC(N)=O)NC(=O)[C@@H]3CSSC[C@H](NC(=O)[C@H](C(C)C)NC(=O)[C@H](CC(C)C)NC(=O)[C@H](CO)NC(=O)[C@H](CO)NC(=O)[C@H](CO)NC(=O)[C@H](CCCCN)NC(=O)[C@H](CSSC[C@H](NC(=O)[C@H](C)N)C(=O)N[C@@H](CC(C)C)C(=O)NCC(=O)N[C@@H](Cc4ccccc4)C(=O)NCC(=O)N[C@@H](CCC(=O)O)C(=O)N[C@@H](CCCCN)C(=O)N3)NC2=O)C(=O)N[C@@H](CO)C(=O)N[C@@H](CCC(N)=O)C(=O)N[C@@H](CCCCN)C(=O)N[C@@H](Cc2c[nH]cn2)C(=O)N[C@@H](CCCCN)C(=O)N[C@@H](Cc2c[nH]c3ccccc23)C(=O)N1)C(N)=O", "note": "[Ca2a]", "values": [
      {"measurement": "Hill coefficients on rKv4.2", "setting": "[1]; Hill fit of concentration-response curves, mean ± S.E.M., n = 4-8, SEM", "value": "1.05 ± 0.17"},
      {"measurement": "rKv4.2 voltage dependence of activation, V1/2 with toxin", "setting": "[1]; SEM", "value": "42.0±2.1", "unit": "mV"},
      {"measurement": "rKv4.2 voltage dependence of inactivation, V1/2 with toxin", "setting": "[1]; SEM", "value": "-54.3±1.4", "unit": "mV"},
      {"measurement": "rKv4.3 voltage dependence of activation, V1/2 with toxin", "setting": "[2]; SEM", "value": "59.0±3.0", "unit": "mV"},
      {"measurement": "rKv4.3 voltage dependence of inactivation, V1/2 with toxin", "setting": "[2]; SEM", "value": "-48.1±2.0", "unit": "mV"},
      {"measurement": "rKv4.3 voltage dependence of activation, κ with toxin", "setting": "[2]; [6]", "value": "12.2±0.9", "unit": "mV"},
      {"measurement": "rKv4.3 voltage dependence of inactivation, κ with toxin", "setting": "[2]; [6]", "value": "4.5±0.2", "unit": "mV"},
      {"measurement": "influence on the steady-state inactivation of rKv4.3", "setting": "[2]; sub-saturation concentration", "value": "almost no influence"}
    ]},
    {"smiles": "CC(C)C[C@H](NC(=O)[C@H](C)NC(=O)[C@@H](NC(=O)[C@H](CCCCN)NC(=O)[C@@H]1CSSC[C@@H]2NC(=O)[C@H](CCC(=O)O)NC(=O)[C@H](CC(N)=O)NC(=O)[C@H](CCCCN)NC(=O)CNC(=O)[C@@H]3CCCN3C(=O)[C@H]([C@@H](C)O)NC(=O)[C@@H]3CSSC[C@H](NC(=O)[C@H](C)NC(=O)[C@H](Cc4ccc(O)cc4)NC(=O)[C@H](CC(N)=O)NC(=O)[C@@H]4CCCN4C(=O)[C@H](CSSC[C@H](NC(=O)CN)C(=O)N[C@@H](CCCCN)C(=O)NCC(=O)N[C@@H](Cc4ccccc4)C(=O)NCC(=O)N[C@@H](CC(=O)O)C(=O)N[C@@H](CO)C(=O)N3)NC2=O)C(=O)N[C@@H](CO)C(=O)N[C@@H](CO)C(=O)N[C@@H](CCCCN)C(=O)N[C@@H](Cc2c[nH]cn2)C(=O)N[C@@H](CCCCN)C(=O)N[C@@H](Cc2c[nH]c3ccccc23)C(=O)N1)C(C)C)C(N)=O", "note": "[Y32A] (H-GCKGFGDSCTPGKNECCPNYACSSKHKWCKVAL-NH2; disulfide 2-17, 9-22, 16-29)", "values": [
      {"measurement": "IC50", "setting": "[3]", "value": "936 ± 123", "unit": "nM"},
      {"measurement": "IC50", "setting": "[1]; SEM", "value": "1000 ± 177", "unit": "nM"}
    ]},
    {"smiles": "CC[C@H](C)[C@H](NC(=O)[C@H](CCCCN)NC(=O)[C@H](Cc1ccc(O)cc1)NC(=O)[C@H](CCCCN)NC(=O)[C@@H]1CSSC[C@@H]2NC(=O)[C@H](CCC(=O)O)NC(=O)[C@H](CC(=O)O)NC(=O)[C@H](CCCCN)NC(=O)CNC(=O)[C@@H]3CCCN3C(=O)[C@H]([C@@H](C)O)NC(=O)[C@@H]3CSSC[C@H](NC(=O)[C@H](C(C)C)NC(=O)[C@H](Cc4c[nH]cn4)NC(=O)[C@H](CC(N)=O)NC(=O)[C@@H]4CCCN4C(=O)[C@H](CSSC[C@H](NC(=O)[C@H](C)N)C(=O)N[C@@H](CCCCN)C(=O)NCC(=O)N[C@@H]([C@@H](C)CC)C(=O)N[C@@H](Cc4ccccc4)C(=O)N[C@@H](C(C)C)C(=O)N[C@@H]([C@@H](C)O)C(=O)N3)NC2=O)C(=O)N[C@@H](CO)C(=O)N[C@@H](CO)C(=O)N[C@@H](CCCCN)C(=O)N[C@@H](Cc2c[nH]cn2)C(=O)N[C@@H](CCCCN)C(=O)N[C@@H](Cc2c[nH]c3ccccc23)C(=O)N1)C(N)=O", "note": "[Cl6b] (H-ACKGIFVTCTPGKDECCPNHVCSSKHKWCKYKI-NH2; disulfide 2-17, 9-22, 16-29)", "values": [
      {"measurement": "effect on the current traces of other Kv channels", "setting": "[4]", "value": "no obvious or only minimal effect"}
    ]},
    {"smiles": "CC(C)C[C@H](NC(=O)[C@H](Cc1ccc(O)cc1)NC(=O)[C@@H](NC(=O)[C@H](CCCCN)NC(=O)[C@@H]1CSSC[C@@H]2NC(=O)[C@H](CCC(=O)O)NC(=O)[C@H](CC(N)=O)NC(=O)[C@H](CCCCN)NC(=O)CNC(=O)[C@@H]3CCCN3C(=O)[C@H]([C@@H](C)O)NC(=O)[C@@H]3CSSC[C@H](NC(=O)[C@H](C)NC(=O)[C@H](Cc4ccc(O)cc4)NC(=O)[C@H](CC(N)=O)NC(=O)[C@@H]4CCCN4C(=O)[C@H](CSSC[C@H](NC(=O)CN)C(=O)N[C@@H](CCCCN)C(=O)NCC(=O)N[C@@H](Cc4ccccc4)C(=O)NCC(=O)N[C@@H](CC(=O)O)C(=O)N[C@@H](CO)C(=O)N3)NC2=O)C(=O)N[C@@H](CO)C(=O)N[C@@H](CO)C(=O)N[C@@H](C)C(=O)N[C@@H](Cc2c[nH]cn2)C(=O)N[C@@H](CCCCN)C(=O)N[C@@H](Cc2c[nH]c3ccccc23)C(=O)N1)C(C)C)C(N)=O", "note": "[K25A] (H-GCKGFGDSCTPGKNECCPNYACSSAHKWCKVYL-NH2; disulfide 2-17, 9-22, 16-29)", "values": [
      {"measurement": "IC50", "setting": "[3]", "value": "2000 ± 332", "unit": "nM"},
      {"measurement": "IC50", "setting": "[1]", "value": "> 20000", "unit": "nM"}
    ]},
    {"smiles": "Nc1ccncc1", "note": "[4-AP, 4-aminopyridine]", "values": [
      {"measurement": "effect on action potential duration (APD), 4-AP", "setting": "[5]", "value": "significantly prolonged"}
    ]},
    {"smiles": "CC(C)C[C@H](NC(=O)[C@H](Cc1ccc(O)cc1)NC(=O)[C@@H](NC(=O)[C@H](CCCCN)NC(=O)[C@@H]1CSSC[C@@H]2NC(=O)[C@H](CCC(=O)O)NC(=O)[C@H](CC(N)=O)NC(=O)[C@H](CCCCN)NC(=O)CNC(=O)[C@@H]3CCCN3C(=O)[C@H]([C@@H](C)O)NC(=O)[C@@H]3CSSC[C@H](NC(=O)[C@H](C)NC(=O)[C@H](Cc4ccc(O)cc4)NC(=O)[C@H](C)NC(=O)[C@@H]4CCCN4C(=O)[C@H](CSSC[C@H](NC(=O)CN)C(=O)N[C@@H](CCCCN)C(=O)NCC(=O)N[C@@H](Cc4ccccc4)C(=O)NCC(=O)N[C@@H](CC(=O)O)C(=O)N[C@@H](CO)C(=O)N3)NC2=O)C(=O)N[C@@H](CO)C(=O)N[C@@H](CO)C(=O)N[C@@H](CCCCN)C(=O)N[C@@H](Cc2c[nH]cn2)C(=O)N[C@@H](CCCCN)C(=O)N[C@@H](Cc2c[nH]c3ccccc23)C(=O)N1)C(C)C)C(N)=O", "note": "[N19A] (H-GCKGFGDSCTPGKNECCPAYACSSKHKWCKVYL-NH2; disulfide 2-17, 9-22, 16-29)", "values": [
      {"measurement": "IC50", "setting": "[3]", "value": "116 ± 9", "unit": "nM"},
      {"measurement": "IC50", "setting": "[1]; SEM", "value": "64 ± 9", "unit": "nM"}
    ]},
    {"smiles": "CC(C)C[C@H](NC(=O)[C@H](Cc1ccc(O)cc1)NC(=O)[C@@H](NC(=O)[C@H](CCCCN)NC(=O)[C@@H]1CSSC[C@@H]2NC(=O)[C@H](CCC(=O)O)NC(=O)[C@H](CC(N)=O)NC(=O)[C@H](CCCCN)NC(=O)CNC(=O)[C@@H]3CCCN3C(=O)[C@H]([C@@H](C)O)NC(=O)[C@@H]3CSSC[C@H](NC(=O)[C@H](C)NC(=O)[C@H](Cc4c[nH]c5ccccc45)NC(=O)[C@H](CC(N)=O)NC(=O)[C@@H]4CCCN4C(=O)[C@H](CSSC[C@H](NC(=O)CN)C(=O)N[C@@H](CCCCN)C(=O)NCC(=O)N[C@@H](Cc4ccccc4)C(=O)NCC(=O)N[C@@H](CC(=O)O)C(=O)N[C@@H](CO)C(=O)N3)NC2=O)C(=O)N[C@@H](CO)C(=O)N[C@@H](CO)C(=O)N[C@@H](CCCCN)C(=O)N[C@@H](Cc2c[nH]cn2)C(=O)N[C@@H](CCCCN)C(=O)N[C@@H](Cc2c[nH]c3ccccc23)C(=O)N1)C(C)C)C(N)=O", "note": "[Y20W] (H-GCKGFGDSCTPGKNECCPNWACSSKHKWCKVYL-NH2; disulfide 2-17, 9-22, 16-29)", "values": [
      {"measurement": "IC50", "setting": "[3]", "value": "495 ± 39", "unit": "nM"},
      {"measurement": "IC50", "setting": "[1]; SEM", "value": "228 ± 33", "unit": "nM"}
    ]}
  ]
}
